From PubChem BioAssay (NCI)
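48-hour exposure; five concentrations; linearly interpolated endpoints. GI50 is the concentration that inhibits growth by half. At the TGI there is no net growth.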

What was measured:
Experiment in all cases: inhibition of tumour cell growth, NCI panel, 48 h
M14 melanoma = tested on: M14 melanoma
MDA-MB-435 = tested on: MDA-MB-435
ACHN renal = tested on: ACHN renal
MDA-MB-231 breast = tested on: MDA-MB-231 breast
CCRF-CEM leukemia = tested on: CCRF-CEM leukemia
RPMI-8226 leukemia = tested on: RPMI-8226 leukemia
MCF7 breast = tested on: MCF7 breast
SN12C renal = tested on: SN12C renal
SNB-75 CNS = tested on: SNB-75 CNS
A549 NSCLC = tested on: A549 NSCLC
T-47D breast = tested on: T-47D breast
LOX IMVI melanoma = tested on: LOX IMVI melanoma
TK-10 renal = tested on: TK-10 renal
IGROV1 ovarian = tested on: IGROV1 ovarian
MOLT-4 leukemia = tested on: MOLT-4 leukemia
MALME-3M melanoma = tested on: MALME-3M melanoma
786-0 renal = tested on: 786-0 renal
BT-549 breast = tested on: BT-549 breast
UACC-257 melanoma = tested on: UACC-257 melanoma
HCT-15 colon = tested on: HCT-15 colon
HS 578T breast = tested on: HS 578T breast
PC-3 prostate = tested on: PC-3 prostate
HT29 colon = tested on: HT29 colon
HCT-116 colon = tested on: HCT-116 colon
K-562 leukemia = tested on: K-562 leukemia
RXF 393 renal = tested on: RXF 393 renal
SK-OV-3 ovarian = tested on: SK-OV-3 ovarian
HL-60(TB) leukemia = tested on: HL-60(TB) leukemia
NCI-H226 lung = tested on: NCI-H226 lung
HCC-2998 colon = tested on: HCC-2998 colon
CAKI-1 renal = tested on: CAKI-1 renal
OVCAR-3 ovarian = tested on: OVCAR-3 ovarian
SK-MEL-28 melanoma = tested on: SK-MEL-28 melanoma
SK-MEL-5 melanoma = tested on: SK-MEL-5 melanoma
OVCAR-4 ovarian = tested on: OVCAR-4 ovarian
SW-620 colon = tested on: SW-620 colon
NCI-H522 lung = tested on: NCI-H522 lung
NCI/ADR-RES ovarian = tested on: NCI/ADR-RES ovarian
HOP-92 NSCLC = tested on: HOP-92 NSCLC
U251 CNS = tested on: U251 CNS
SK-MEL-2 melanoma = tested on: SK-MEL-2 melanoma
MDA-MB-468 breast = tested on: MDA-MB-468 breast
KM12 colon = tested on: KM12 colon
DU-145 prostate = tested on: DU-145 prostate
SF-268 CNS = tested on: SF-268 CNS
SF-295 CNS = tested on: SF-295 CNS
OVCAR-5 ovarian = tested on: OVCAR-5 ovarian
UACC-62 melanoma = tested on: UACC-62 melanoma
SF-539 CNS = tested on: SF-539 CNS
COLO 205 colon = tested on: COLO 205 colon
EKVX NSCLC = tested on: EKVX NSCLC
HOP-62 NSCLC = tested on: HOP-62 NSCLC
NCI-H460 lung = tested on: NCI-H460 lung
OVCAR-8 ovarian = tested on: OVCAR-8 ovarian
UO-31 renal = tested on: UO-31 renal
NCI-H23 lung = tested on: NCI-H23 lung
SNB-19 CNS = tested on: SNB-19 CNS

CN(C)c1nc(NCCNS(=O)(=O)c2ccc(C3=Nc4c(N)nc(N)nc4NC(c4ccccc4)C3)cc2)nc(Nc2ccc(F)cc2)n1 (centres undefined)
GI50 (M14 melanoma): 24.4 µM
TGI (M14 melanoma): > 100 µM
GI50 (MDA-MB-435): 15 µM
TGI (MDA-MB-435): > 100 µM
GI50 (ACHN renal): > 100 µM
TGI (ACHN renal): > 100 µM
GI50 (MDA-MB-231 breast): 6.16 µM
TGI (MDA-MB-231 breast): 67.5 µM
GI50 (CCRF-CEM leukemia): 4.02 µM
TGI (CCRF-CEM leukemia): > 100 µM
GI50 (RPMI-8226 leukemia): 3.32 µM
TGI (RPMI-8226 leukemia): > 100 µM
GI50 (MCF7 breast): 3.85 µM
TGI (MCF7 breast): 85.5 µM
GI50 (SN12C renal): 7.83 µM
TGI (SN12C renal): > 100 µM
GI50 (SNB-75 CNS): 3.58 µM
TGI (SNB-75 CNS): > 100 µM
GI50 (A549 NSCLC): > 100 µM
TGI (A549 NSCLC): > 100 µM
GI50 (T-47D breast): 5.12 µM
TGI (T-47D breast): > 100 µM
GI50 (LOX IMVI melanoma): 9.96 µM
TGI (LOX IMVI melanoma): 25.7 µM
GI50 (TK-10 renal): > 100 µM
TGI (TK-10 renal): > 100 µM
GI50 (IGROV1 ovarian): 5.76 µM
TGI (IGROV1 ovarian): > 100 µM
GI50 (MOLT-4 leukemia): 3.11 µM
TGI (MOLT-4 leukemia): > 100 µM
GI50 (MALME-3M melanoma): 7.34 µM
TGI (MALME-3M melanoma): > 100 µM
GI50 (786-0 renal): 7.88 µM
TGI (786-0 renal): > 100 µM
GI50 (BT-549 breast): 8.82 µM
TGI (BT-549 breast): > 100 µM
GI50 (UACC-257 melanoma): 87.2 µM
TGI (UACC-257 melanoma): > 100 µM
GI50 (HCT-15 colon): > 100 µM
TGI (HCT-15 colon): > 100 µM
GI50 (HS 578T breast): 6.43 µM
TGI (HS 578T breast): > 100 µM
GI50 (PC-3 prostate): 3.84 µM
TGI (PC-3 prostate): > 100 µM
GI50 (HT29 colon): 5.32 µM
TGI (HT29 colon): > 100 µM
GI50 (HCT-116 colon): 7.37 µM
TGI (HCT-116 colon): > 100 µM
GI50 (K-562 leukemia): 4.33 µM
TGI (K-562 leukemia): > 100 µM
GI50 (RXF 393 renal): 2.55 µM
TGI (RXF 393 renal): 8.95 µM
GI50 (SK-OV-3 ovarian): > 100 µM
TGI (SK-OV-3 ovarian): > 100 µM
GI50 (HL-60(TB) leukemia): 4.24 µM
TGI (HL-60(TB) leukemia): > 100 µM
GI50 (NCI-H226 lung): > 100 µM
TGI (NCI-H226 lung): > 100 µM
GI50 (HCC-2998 colon): 11.7 µM
TGI (HCC-2998 colon): > 100 µM
GI50 (CAKI-1 renal): 9.73 µM
TGI (CAKI-1 renal): > 100 µM
GI50 (OVCAR-3 ovarian): 69.3 µM
TGI (OVCAR-3 ovarian): > 100 µM
GI50 (SK-MEL-28 melanoma): > 100 µM
TGI (SK-MEL-28 melanoma): > 100 µM
GI50 (SK-MEL-5 melanoma): 5.81 µM
TGI (SK-MEL-5 melanoma): 20.5 µM
GI50 (OVCAR-4 ovarian): 74.6 µM
TGI (OVCAR-4 ovarian): > 100 µM
GI50 (SW-620 colon): 40.4 µM
TGI (SW-620 colon): > 100 µM
GI50 (NCI-H522 lung): 77.4 µM
TGI (NCI-H522 lung): > 100 µM
GI50 (NCI/ADR-RES ovarian): > 100 µM
TGI (NCI/ADR-RES ovarian): > 100 µM
GI50 (HOP-92 NSCLC): 2.18 µM
TGI (HOP-92 NSCLC): 9.96 µM
GI50 (U251 CNS): 18.4 µM
TGI (U251 CNS): > 100 µM
GI50 (SK-MEL-2 melanoma): 28.5 µM
TGI (SK-MEL-2 melanoma): > 100 µM
GI50 (MDA-MB-468 breast): 3.37 µM
TGI (MDA-MB-468 breast): 13.7 µM
GI50 (KM12 colon): 8.8 µM
TGI (KM12 colon): > 100 µM
GI50 (DU-145 prostate): > 100 µM
TGI (DU-145 prostate): > 100 µM
GI50 (SF-268 CNS): 9.85 µM
TGI (SF-268 CNS): > 100 µM
GI50 (SF-295 CNS): 9.5 µM
TGI (SF-295 CNS): > 100 µM
GI50 (OVCAR-5 ovarian): > 100 µM
TGI (OVCAR-5 ovarian): > 100 µM
GI50 (UACC-62 melanoma): 31.5 µM
TGI (UACC-62 melanoma): > 100 µM
GI50 (SF-539 CNS): 12 µM
TGI (SF-539 CNS): 63.8 µM
GI50 (COLO 205 colon): 16.4 µM
TGI (COLO 205 colon): > 100 µM
GI50 (EKVX NSCLC): 6.65 µM
TGI (EKVX NSCLC): > 100 µM
GI50 (HOP-62 NSCLC): 99.7 µM
TGI (HOP-62 NSCLC): > 100 µM
GI50 (NCI-H460 lung): 6.49 µM
TGI (NCI-H460 lung): > 100 µM
GI50 (OVCAR-8 ovarian): 61.4 µM
TGI (OVCAR-8 ovarian): > 100 µM
GI50 (UO-31 renal): > 100 µM
TGI (UO-31 renal): > 100 µM
GI50 (NCI-H23 lung): > 100 µM
TGI (NCI-H23 lung): > 100 µM
GI50 (SNB-19 CNS): 21.8 µM
TGI (SNB-19 CNS): > 100 µM
